Measurements published in PubChem BioAssay AID1963982 (Molecular Pharmacology Branch, DTP, NCI, 2024).

Test system: 313798-341-R-J2-PDC spheroids, viability
Assay: Anticancer human tumor 313798-341-R-J2-PDC patient-derived cervical squamous cell carcinoma cell line growth inhibition [PI3K]
Conditions: spheroids with HUVEC and MSC; for IC50: curve of first compound; for viability, T/C: stronger effect = lower value
Method in brief: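 High-throughput combination screen: PI3K inhibitors crossed with targeted small molecules on complex spheroids of tumor cells, HUVEC and MSCs at 37 degrees C, 5% CO2. Top concentration was at or near clinical Cmax (otherwise 10 microM), with half-log decrements.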
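Further: spheroids exposed to compounds for seven days.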
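Wherever viability, T/C is given: 100% = DMSO vehicle control viability.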

IC50 (second compound 0.00316 µM): 59.1 nM | IC50 (second compound 0.01 µM): 48.8 nM | IC50 (second compound 0.0316 µM): 18 nM | IC50 (second compound 0.1 µM): < 0.316 nM | IC50 (second compound 0.316 µM): < 0.316 nM | IC50 (second compound 1 µM): < 0.316 nM
Structure (SMILES): CC(C)n1nc(-c2ccc3oc(N)nc3c2)c2c(N)ncnc21 + COc1c(OCCCN2CCOCC2)ccc2c3n(c(=NC(=O)c4cnc(N)nc4)nc12)CCN3
viability, T/C (second compound 0.00316 µM, first compound 0.000316 µM): 94.2% | viability, T/C (second compound 0.00316 µM, first compound 0.001 µM): 99% | viability, T/C (second compound 0.00316 µM, first compound 0.00316 µM): 97.3% | viability, T/C (second compound 0.00316 µM, first compound 0.01 µM): 84% | viability, T/C (second compound 0.00316 µM, first compound 0.0316 µM): 62.8% | viability, T/C (second compound 0.00316 µM, first compound 0.1 µM): 39.6% | viability, T/C (second compound 0.01 µM, first compound 0.000316 µM): 98.1% | viability, T/C (second compound 0.01 µM, first compound 0.001 µM): 83.9% | viability, T/C (second compound 0.01 µM, first compound 0.00316 µM): 83.3% | viability, T/C (second compound 0.01 µM, first compound 0.01 µM): 74% | viability, T/C (second compound 0.01 µM, first compound 0.0316 µM): 59.6% | viability, T/C (second compound 0.01 µM, first compound 0.1 µM): 35.4% | viability, T/C (second compound 0.0316 µM, first compound 0.000316 µM): 72.1% | viability, T/C (second compound 0.0316 µM, first compound 0.001 µM): 72.2% | viability, T/C (second compound 0.0316 µM, first compound 0.00316 µM): 85.8% | viability, T/C (second compound 0.0316 µM, first compound 0.01 µM): 52% | viability, T/C (second compound 0.0316 µM, first compound 0.0316 µM): 44.3% | viability, T/C (second compound 0.0316 µM, first compound 0.1 µM): 23.6% | viability, T/C (second compound 0.1 µM, first compound 0.000316 µM): 41.4% | viability, T/C (second compound 0.1 µM, first compound 0.001 µM): 39.7% | viability, T/C (second compound 0.1 µM, first compound 0.00316 µM): 40.2% | viability, T/C (second compound 0.1 µM, first compound 0.01 µM): 31.8% | viability, T/C (second compound 0.1 µM, first compound 0.0316 µM): 23.9% | viability, T/C (second compound 0.1 µM, first compound 0.1 µM): 13.4% | viability, T/C (second compound 0.316 µM, first compound 0.000316 µM): 17.7% | viability, T/C (second compound 0.316 µM, first compound 0.001 µM): 17.5% | viability, T/C (second compound 0.316 µM, first compound 0.00316 µM): 15.3% | viability, T/C (second compound 0.316 µM, first compound 0.01 µM): 13.8% | viability, T/C (second compound 0.316 µM, first compound 0.0316 µM): 14.3% | viability, T/C (second compound 0.316 µM, first compound 0.1 µM): 8.89% | viability, T/C (second compound 1 µM, first compound 0.000316 µM): 13.2% | viability, T/C (second compound 1 µM, first compound 0.001 µM): 10.9% | viability, T/C (second compound 1 µM, first compound 0.00316 µM): 10.3% | viability, T/C (second compound 1 µM, first compound 0.01 µM): 12.2% | viability, T/C (second compound 1 µM, first compound 0.0316 µM): 12.9% | viability, T/C (second compound 1 µM, first compound 0.1 µM): 8.5%
